Test results reported in patent US5547980A, “Bicyclic sulfones, processes for their production and pharmaceutical agents containing them” (Boehringer Mannheim GmbH, priority 1991, dated 1996).
Counter-ions that a name gives are not always drawn.

Each compound was assayed on passively sensitized guinea-pig lung parenchymal strips (assay: Inhibition of the antigen-induced constriction of passively sensitized guinea-pig lung parenchymal strips in vitro (organ bath)). Settings: Cavia porcellus, 20 μg/ml, ovalbumin 0.1 μg/ml, 20 min/37° C. preincubation time (organ bath technique).
Type: cell-based, guinea-pig (Pirbright-White)
Description: Inhibition of the antigen-induced constriction of passively sensitized guinea-pig - lung parenchymal - strips in vitro (organ bath) For the in vitro examination of the compounds according to the invention, the inhibition of the antigen-induced constriction of passively sensitized guinea-pig lung parenchymal strips was measured as described in the following: Pirbright-White guinea-pigs were stunned by a blow on the neck and exsanguinated. The lungs were rinsed substantially free of blood in situ using Krebs buffer, pH 7.4. Subsequently the lung was excised, cut into strips (ca. 20×4×4 mm) and the strips were passively sensitized for one hour at room temperature with a 1:50 dilution of a homologous anti-ovalbumin antiserum and then washed once with Krebs buffer. The antiserum had previously been produced in guinea-pigs of the same strain according to […] (1) by repeated injection of ovalbumin (2×crystallized) with addition of complete Freund's adjuvant. The antiserum was stored undiluted at -18° C. until use. Subsequently the lung strips were suspended individually in 10 ml water baths on an isometric measuring recorder with an initial tension of 1.2 g. Afterwards the baths were filled with Krebs buffer and gassed continuously at 37° C. with O2 (95%) and CO2 (5%). The constrictions of the lung strips were recorded via an amplifier on a recorder. […] The inhibitory effects of the compounds according to the invention were expressed as percentage reduction of the constriction amplitudes of the "samples with test substance" in relation to the "untreated control constrictions". (1) […]. Johnstone Quantitative studies on anaphylaxis in guinea-pigs passively sensitized with homologous antibody. Inter. Arch. Allergy 41, 648-454 (1971) |% inhibition of the ovalbumin (0.1 μg/ml) induced |constriction of passively sensitized lung parenchymal strips |(guinea-pig) |20 min/37° C. preincubation time (organ bath technique)

Compound | inhibition at 20 µg/mL
CCN(CC)CC1=Cc2ccc(Cl)cc2S1(=O)=O [Example 1, 6-chloro-2-(N,N-diethylamino-methyl)benzo[b]thiophene-1,1 dioxide] | 53%
O=S1(=O)CC(N2CCCC2)C(N2CCCC2)c2ccc(Cl)cc21 (stereo not drawn) [3a), 7-chloro-3,4-bis-pyrrolidino-benzo[b]thian-1,1-dioxide] | 25%
CCN(CC)CC1=Cc2cc(Cl)c(Cl)cc2S1(=O)=O [Example 6, 5,6-dichloro-2-(N,N-diethylamino-methyl)benzo[b]-thiophene-1,1-dioxide-hydrochloride] | 51%
CCN(CC)CC1=Cc2ccc(Cl)c(Cl)c2S1(=O)=O [Example 7, 6,7-dichloro-2-(N,N-diethylamino-methyl)benzo[b]thiophene-1,1-dioxide-hydrochloride] | 88%
CCCCNC1CS(=O)(=O)c2cc(Cl)ccc2C1NCCCC (stereo not drawn) [Example 5l), 7-chloro-3,4-bis-n-butyl-amino-benzo[b]thian-1,1-dioxide-dihydrochloride] | 25%

Same assay, conditions: Cavia porcellus, 200 μg/ml (footnote *), ovalbumin 0.1 μg/ml, 20 min/37° C. preincubation time (organ bath technique)

Compound | inhibition at 200 µg/mL
Cn1c(=O)c2[nH]cnc2n(C)c1=O [aminophylline, reference compound] | 26%
